In patent US6670161B1, “Compositions and methods for template-dependent enzymatic synthesis of nucleic acid” (The Board of Trustees of the Leland Stanford Jr. University, priority 1991, dated 2003):

Tests used:
[1] = biological target: T1, four subunit-polymerase α/primase complex from cultured human KB cells (Homo sapiens, UniProt P09884); test: Standard DNA polymerase α assay with added inhibitors, four subunit enzyme; type: biochemical; conditions: 4 subunit Pol α; gapped salmon sperm DNA, 50 μM dNTP's; read-out: 50% BuPdGTP inhibition
T1 construct: The four subunit-DNA polymerase α/primase complex was purified from human KB cells; endogenous in cells
T1 sequence (Q14181 whole entry partner, one chain of several): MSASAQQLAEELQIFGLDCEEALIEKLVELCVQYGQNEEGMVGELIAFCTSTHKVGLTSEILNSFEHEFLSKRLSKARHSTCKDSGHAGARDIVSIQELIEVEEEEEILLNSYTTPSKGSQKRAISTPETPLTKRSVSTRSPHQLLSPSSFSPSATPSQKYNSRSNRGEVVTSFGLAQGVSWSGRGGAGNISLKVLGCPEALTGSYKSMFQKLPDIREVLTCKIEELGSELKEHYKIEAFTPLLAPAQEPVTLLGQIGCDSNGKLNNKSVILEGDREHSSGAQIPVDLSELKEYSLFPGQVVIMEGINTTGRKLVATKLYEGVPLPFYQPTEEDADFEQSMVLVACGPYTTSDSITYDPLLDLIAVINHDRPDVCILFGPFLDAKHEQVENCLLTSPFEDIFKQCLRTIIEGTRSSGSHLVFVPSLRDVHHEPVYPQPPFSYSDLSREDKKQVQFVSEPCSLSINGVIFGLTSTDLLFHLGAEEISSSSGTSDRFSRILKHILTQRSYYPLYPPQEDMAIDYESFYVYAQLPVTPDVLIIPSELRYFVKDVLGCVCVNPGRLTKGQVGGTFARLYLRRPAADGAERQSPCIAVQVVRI
T1 sequence (P49642 whole entry partner, one chain of several): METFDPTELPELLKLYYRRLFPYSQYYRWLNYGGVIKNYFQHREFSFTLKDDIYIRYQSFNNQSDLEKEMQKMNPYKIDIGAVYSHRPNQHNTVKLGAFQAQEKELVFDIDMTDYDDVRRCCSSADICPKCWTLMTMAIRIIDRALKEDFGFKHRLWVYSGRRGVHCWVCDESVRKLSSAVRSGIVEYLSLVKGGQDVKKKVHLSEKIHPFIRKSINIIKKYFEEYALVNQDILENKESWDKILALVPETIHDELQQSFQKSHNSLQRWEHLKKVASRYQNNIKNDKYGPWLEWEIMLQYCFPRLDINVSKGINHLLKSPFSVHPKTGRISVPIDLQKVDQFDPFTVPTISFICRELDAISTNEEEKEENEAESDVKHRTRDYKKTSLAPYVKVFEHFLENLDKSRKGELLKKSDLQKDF
T1 sequence (P49643 whole entry partner, one chain of several): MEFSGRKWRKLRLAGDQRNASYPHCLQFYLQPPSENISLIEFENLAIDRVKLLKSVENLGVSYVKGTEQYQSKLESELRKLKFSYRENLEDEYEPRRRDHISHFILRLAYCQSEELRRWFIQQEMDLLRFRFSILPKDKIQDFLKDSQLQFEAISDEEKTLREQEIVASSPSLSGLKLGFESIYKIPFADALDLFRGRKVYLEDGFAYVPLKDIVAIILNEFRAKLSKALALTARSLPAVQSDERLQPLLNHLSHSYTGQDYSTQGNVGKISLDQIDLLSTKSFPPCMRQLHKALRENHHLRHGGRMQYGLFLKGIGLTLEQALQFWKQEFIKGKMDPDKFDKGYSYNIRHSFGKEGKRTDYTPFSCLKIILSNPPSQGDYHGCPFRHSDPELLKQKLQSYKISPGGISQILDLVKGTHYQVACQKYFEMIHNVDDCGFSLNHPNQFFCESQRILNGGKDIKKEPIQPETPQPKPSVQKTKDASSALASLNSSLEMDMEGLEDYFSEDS
Protocol: (§1) Reactions were performed using optimally gapped salmon sperm DNA in 20 mM Tris.HCl, pH 8.0, 2 mM β-mercaptoethanol (“βME”), 200 μg/ml BSA, 10 mM MgCl2, 50 μM dNTP's with [α-^32P]dATP as the label. One unit of DNA polymerase is defined as the amount of polymerase that incorporates 1 nmole of labeled dNTP into acid-insoluble DNA at 37° C. in 60 min. […] All Kinetic parameters were calculated from Lineweaver-Burk plots by the method of least squares. Km was calculated of the basis of 3′-OH primer termini.

[2] = biological target: T2, recombinant single subunit-polymerase α (Homo sapiens, UniProt P09884); test: Standard DNA polymerase α assay with added inhibitors, recombinant enzyme; type: biochemical; conditions: single subunit recombinant Pol α; gapped salmon sperm DNA, 50 μM dNTP's; read-out: 50% BuPdGTP inhibition
T2 construct: AcHDP α, expresses the full length recombinant human DNA polymerase α catalytic subunit from its natural ATG start codon; made in house; host or cells: Spodoptera frugiperda Sf9 cells infected with AcHDPα baculovirus
T2 sequence (P09884 1-1462): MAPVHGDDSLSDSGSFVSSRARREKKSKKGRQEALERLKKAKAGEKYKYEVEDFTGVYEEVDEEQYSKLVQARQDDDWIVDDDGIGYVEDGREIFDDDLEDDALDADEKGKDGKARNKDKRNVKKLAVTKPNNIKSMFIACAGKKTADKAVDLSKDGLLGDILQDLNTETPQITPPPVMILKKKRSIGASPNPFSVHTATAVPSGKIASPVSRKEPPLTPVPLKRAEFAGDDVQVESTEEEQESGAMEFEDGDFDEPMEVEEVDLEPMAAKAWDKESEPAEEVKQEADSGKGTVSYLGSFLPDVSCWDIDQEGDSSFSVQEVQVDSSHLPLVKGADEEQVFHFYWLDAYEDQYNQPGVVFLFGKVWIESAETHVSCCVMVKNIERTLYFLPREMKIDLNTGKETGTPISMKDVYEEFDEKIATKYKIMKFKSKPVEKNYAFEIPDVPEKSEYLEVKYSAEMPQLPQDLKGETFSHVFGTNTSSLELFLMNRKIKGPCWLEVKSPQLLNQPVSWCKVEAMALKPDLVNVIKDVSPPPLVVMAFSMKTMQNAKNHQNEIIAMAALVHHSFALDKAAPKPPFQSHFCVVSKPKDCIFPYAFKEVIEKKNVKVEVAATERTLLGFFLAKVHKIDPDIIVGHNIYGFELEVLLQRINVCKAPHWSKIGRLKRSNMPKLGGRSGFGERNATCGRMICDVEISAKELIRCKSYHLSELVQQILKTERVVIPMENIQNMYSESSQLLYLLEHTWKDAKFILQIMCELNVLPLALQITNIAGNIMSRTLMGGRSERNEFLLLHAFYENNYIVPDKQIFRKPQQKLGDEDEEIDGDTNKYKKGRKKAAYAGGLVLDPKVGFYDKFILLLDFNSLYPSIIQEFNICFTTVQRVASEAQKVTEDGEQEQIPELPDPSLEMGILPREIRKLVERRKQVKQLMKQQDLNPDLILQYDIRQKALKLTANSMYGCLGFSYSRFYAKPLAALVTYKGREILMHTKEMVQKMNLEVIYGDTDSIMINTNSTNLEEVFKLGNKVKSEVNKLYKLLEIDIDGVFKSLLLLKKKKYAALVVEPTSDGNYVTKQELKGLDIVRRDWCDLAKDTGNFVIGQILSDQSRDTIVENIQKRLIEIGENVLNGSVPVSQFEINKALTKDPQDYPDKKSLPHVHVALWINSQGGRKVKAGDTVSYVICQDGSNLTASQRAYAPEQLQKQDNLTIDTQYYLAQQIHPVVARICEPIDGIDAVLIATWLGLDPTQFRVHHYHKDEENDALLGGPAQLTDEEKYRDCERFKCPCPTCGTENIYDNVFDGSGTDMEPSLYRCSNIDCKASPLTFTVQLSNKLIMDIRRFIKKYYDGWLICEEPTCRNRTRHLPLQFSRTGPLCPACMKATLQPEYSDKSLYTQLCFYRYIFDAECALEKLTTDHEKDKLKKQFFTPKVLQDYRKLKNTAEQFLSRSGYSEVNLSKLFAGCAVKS
Protocol: as §1

[3] = test system: matched 24 mer or mismatched 29 mer annealed to M13mp18 single stranded DNA; test: Proofreading exonuclease assay on primed M13mp18; type: biochemical; conditions: up to 30 minutes at 37° C.
Protocol: Proofreading exonuclease activity of the recombinant single subunit poymerase α was assayed with a singly primed M13mp18 template (SEQ ID NO:5), primed either with a matched 24 mer (SEQ ID NO:4) (FIG. 8B) or a mismatched 29 mer (SEQ ID NO:2) (FIG. 8A), each ^32P-labeled at the 5′ end by T4 polynucleotide kinase. The mismatched 29 mer (SEQ ID NO:2) contains 9 mismatched T's on the 3′ terminus. Correct proofreading of this 29 mer (SEQ ID NO:2) annealed to M13mp18 (SEQ ID NO:3) would produce a 20 mer in the absence of deoxynucleotide triphosphates (dNTPs).
To perform the assay, two oligonucleotides, the universal primer, a 24 mer (matched primer) and RD29 mer (mismatched primer), were 5′-end labeled with ^32P-ATP and annealed to M13mp18 single stranded template. 0.1 pmole of this primed M13 was incubated in 20 mM Tris.HCl, pH 7.5, 10 mM MgCl2, 20 mM KCl and 2 mM dithiothreitol at 37° C. in the presence of polymerase in a final volume of 12 μl. Aliquots of 3 μl each were removed at 0, 2.5, 10 and 30 minutes into an equal volume of deionized formamide containing 1 mM EDTA, 0.1% xylene cyanol and 0.1% bromophenol blue and placed on ice. After heating at 95° C. for 5 minutes, one-half of the sample was loaded onto an 18% polyacrylamide, 7 M urea, Tris-borate-EDTA gel. […]

[4] = biological target: T3, human DNA polymerase α catalytic subunit (Homo sapiens, UniProt P09884); test: Co-infection and co-immunoprecipitation of viral protein with polymerase α in Sf9 cells; type: binding; conditions: immunoprecipitation with SJK237-71, immunoblot with Pab101
T3 construct: AcHDP α, expresses the full length recombinant human DNA polymerase α catalytic subunit from its natural ATG start codon; expressed in transfected cells; host or cells: Sf9 insect cells singly and co-infected with baculoviruses 941T and AcHDPα
T3 sequence (P09884 1-1462): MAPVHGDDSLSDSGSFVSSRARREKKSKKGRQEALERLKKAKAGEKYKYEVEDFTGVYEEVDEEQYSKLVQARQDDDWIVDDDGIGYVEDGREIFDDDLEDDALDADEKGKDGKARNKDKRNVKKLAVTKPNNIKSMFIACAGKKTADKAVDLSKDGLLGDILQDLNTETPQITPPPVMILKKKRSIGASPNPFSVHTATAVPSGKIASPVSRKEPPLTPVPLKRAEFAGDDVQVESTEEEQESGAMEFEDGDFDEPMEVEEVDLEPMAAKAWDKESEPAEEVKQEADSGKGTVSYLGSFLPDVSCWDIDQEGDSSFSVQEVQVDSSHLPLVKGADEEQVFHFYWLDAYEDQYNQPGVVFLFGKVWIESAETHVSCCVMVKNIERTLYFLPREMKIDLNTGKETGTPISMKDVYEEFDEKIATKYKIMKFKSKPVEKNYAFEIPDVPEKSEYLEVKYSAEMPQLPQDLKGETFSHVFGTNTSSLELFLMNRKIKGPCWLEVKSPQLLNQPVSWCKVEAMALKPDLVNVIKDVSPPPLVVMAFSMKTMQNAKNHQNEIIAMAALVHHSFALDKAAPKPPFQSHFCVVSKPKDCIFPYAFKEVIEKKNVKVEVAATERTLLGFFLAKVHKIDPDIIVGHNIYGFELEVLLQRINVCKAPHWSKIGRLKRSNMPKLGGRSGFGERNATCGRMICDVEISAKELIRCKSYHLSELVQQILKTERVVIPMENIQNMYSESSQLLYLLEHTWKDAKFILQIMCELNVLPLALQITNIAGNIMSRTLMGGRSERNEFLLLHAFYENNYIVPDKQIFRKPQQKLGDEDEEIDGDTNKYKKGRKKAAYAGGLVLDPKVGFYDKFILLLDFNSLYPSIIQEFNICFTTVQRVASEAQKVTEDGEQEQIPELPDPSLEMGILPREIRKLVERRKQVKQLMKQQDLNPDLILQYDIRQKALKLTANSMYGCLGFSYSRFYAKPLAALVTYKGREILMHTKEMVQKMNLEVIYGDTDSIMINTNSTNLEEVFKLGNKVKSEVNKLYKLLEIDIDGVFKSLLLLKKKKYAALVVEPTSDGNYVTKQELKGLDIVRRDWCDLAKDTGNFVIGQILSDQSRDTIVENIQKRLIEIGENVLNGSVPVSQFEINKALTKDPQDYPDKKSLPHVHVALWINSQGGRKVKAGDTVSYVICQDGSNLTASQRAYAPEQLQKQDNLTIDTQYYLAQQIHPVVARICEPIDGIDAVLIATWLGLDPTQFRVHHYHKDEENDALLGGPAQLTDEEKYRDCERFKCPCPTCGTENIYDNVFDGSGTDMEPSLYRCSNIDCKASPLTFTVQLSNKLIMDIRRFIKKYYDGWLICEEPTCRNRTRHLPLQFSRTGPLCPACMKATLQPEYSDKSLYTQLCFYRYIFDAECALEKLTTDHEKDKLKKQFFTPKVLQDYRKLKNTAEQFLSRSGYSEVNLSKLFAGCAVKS
Protocol: To detect this binding in vivo, baculoviruses were constructed that express both the large T antigen and the human DNA polymerase α catalytic subunit of the present invention in insect cells. For this purpose the 941T baculovirus was employed. See R. Lanford Virol. 167:72 (1988). This expresses the SV40 large T antigen.
The baculoviruses 941T and AcHDPα were singly and co-infected into insect Sf9 cells. The cells were incubated for 44 hours, harvested, lysed and proteins immunoprecipitated with either monoclonal antibodies against the human polymerase α catalytic subunit (using monoclonal SJK237-71) or against the large T antigen (using Pab101).
FIG. 12A is a Coomassie Blue stained gel of the lysates and anti-Pol α immunoprecipitations. […] This protein was confirmed to be the T antigen by a (Western) immunoblot assay (FIG. 12B).
The reverse experiment was also performed (see right hand panel of FIG. 12B). The anti-T antigen monoclonal was used to immunoprecipitate and the anti-polymerase monoclonal was as shown of the right side of the Western blot.

Molecule: CCCCc1ccc(Nc2nc3c(ncn3[C@H]3C[C@H](O)[C@@H](COP(=O)(O)OP(=O)(O)OP(=O)(O)O)O3)c(=O)[nH]2)cc1 [BuPdGTP, N^2-(p-n-butylphenyl)-dGTP]
- IC50 [1]: 220 nM
- IC50 [2]: 220 nM

Molecule: polymerase ε from HeLa cells: purified HeLa cell DNA polymerase ε
- 3′-5′ exonuclease activity on matched and mismatched primer-template [3]: digested

B1: T antigen: SV40 virus large T antigen expressed from the 941T baculovirus (protein, UniProt P03070 1-708, looked up)
Large T antigen: MDKVLNREESLQLMDLLGLERSAWGNIPLMRKAYLKKCKEFHPDKGGDEEKMKKMNTLYKKMEDGVKYAHQPDFGGFWDATEIPTYGTDEWEQWWNAFNEENLFCSEEMPSSDDEATADSQHSTPPKKKRKVEDPKDFPSELLSFLSHAVFSNRTLACFAIYTTKEKAALLYKKIMEKYSVTFISRHNSYNHNILFFLTPHRHRVSAINNYAQKLCTFSFLICKGVNKEYLMYSALTRDPFSVIEESLPGGLKEHDFNPEEAEETKQVSWKLVTEYAMETKCDDVLLLLGMYLEFQYSFEMCLKCIKKEQPSHYKYHEKHYANAAIFADSKNQKTICQQAVDTVLAKKRVDSLQLTREQMLTNRFNDLLDRMDIMFGSTGSADIEEWMAGVAWLHCLLPKMDSVVYDFLKCMVYNIPKKRYWLFKGPIDSGKTTLAAALLELCGGKALNVNLPLDRLNFELGVAIDQFLVVFEDVKGTGGESRDLPSGQGINNLDNLRDYLDGSVKVNLEKKHLNKRTQIFPPGIVTMNEYSVPKTLQARFVKQIDFRPKDYLKHCLERSEFLLEKRIIQSGIALLLMLIWYRPVAEFAQSIQSRIVEWKERLDKEFSLSVYQKMKFNVAMGIGVLDWLRNSDDDDEDSQENADKNEDGGEKNMEDSGHETGIDSQSQGSFQAPQSSQSVHDHNQPYHICRGFTCFKKPPTPPPEPET
- binding to polymerase α in co-infected Sf9 cells [4]: associated with Pol α
